Reference: the NIST ThermoML archive (doi:10.1016/j.fluid.2013.08.005)

Assay: mn = molality of the nth substance listed, in mol/kg
Settings: 298.15 K, 101 kPa, Liquid; for electrical conductivity: Alternating current cell with electrodes; for mass density: Vibrating tube method

CCCCCC[N+](C)(C)C.[Br-] [hexyltrimethylammonium bromide] + O
Settings | electrical conductivity [S/m] | mass density [kg/m3]
m1 = 0.02501 | 0.446 | 997.79
m1 = 0.05001 | 0.641 | 998.57
m1 = 0.07505 | 0.99 | 999.34
m1 = 0.125 | 1.02 | 1000.88
m1 = 0.13 | 1.15 | 1001.05
m1 = 0.15 | 1.3 | 1001.64
m1 = 0.1751 | 1.72 | 1002.41
m1 = 0.25 | 1.85 | 1004.69
m1 = 0.2751 | 2.08 | 1005.39
m1 = 0.3251 | 2.2 | 1006.85
m1 = 0.3501 | 2.41 | 1007.63
m1 = 0.4001 | 2.51 | 1009.06
m1 = 0.425 | 2.79 | 1009.77
m1 = 0.5001 | 3.53 | 1011.89
m1 = 0.7503 | 3.83 | 1018.71
m1 = 0.8791 | 4.07 | 1021.99
m1 = 1 | 0.239 | 1025.02
m1 = 1.501 | – | 1036.33
m1 = 2.001 | – | 1046
